The values below are quoted from earlier work in patent publication US20240350489A1, “LOU064 FOR TREATING MULTIPLE SCLEROSIS” (NOVARTIS AG, priority 2021, published 2024).

For data set [1], the system named is experimental autoimmune encephalomyelitis (EAE). The settings on record: cited from earlier work.
For data set [2] the following is noted: cited from earlier work.
For data set [3] the following is noted: cited from earlier work. This is another data set of the same source.

The structures appear in SMILES notation. “Also recorded” adds a separate entry of the source. Like-named read-outs stand apart in the source and are kept apart here.

With `C=CC(=O)N1CCC(CNc2ncnc(N)c2-c2ccc(Oc3ccccc3)cc2)CC1` [evobrutinib], the “efficacy in EAE” value in data set [1] (3 mg/kg) is reported as “effective”; in data set [1] (10 mg/kg vs 3 mg/kg), “did not further improve the effect”. Further, the “elevations of ALT, AST and lipase” value in data set [2] (75 mg once daily and twice daily) was “dose-limiting liver enzyme elevations; also recorded: higher frequency of elevations”. Besides, the “brain lesions and relapses” value in data set [2] (75 mg once or twice per day vs placebo or dimethyl fumarate) is “trend toward developing fewer brain lesions and experiencing fewer relapses”.
On to `C=CC(=O)N1CCC[C@@H](n2c(=O)n(-c3ccc(Oc4ccccc4)cc3)c3c(N)nccc32)C1` [tolebrutinib], for which, in data set [3] (human, in vivo), the dose-limiting side effects result is “dose-limiting diarrhea”. For the same molecule, in data set [3] (mid-stage trials), the MS lesion development entry is given as “reduction in MS lesion development”; the “most frequent adverse events” value is “headaches and cold-like symptoms”.
